The results in this text go back to ChEMBL document CHEMBL1201862, “PubChem BioAssay data set” (2004).

Among the test systems are EKVX; HCC 2998; HT-29; M14; MOLT-4; OVCAR-4; OVCAR-5; SF-268; SF-539; SK-MEL-2; SK-OV-3; U-251; UACC-257; UACC-62; UO-31; NCI-H522; SR.
Holding throughout (assay): growth of human tumour cells (NCI), 48 h

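1) Cells in 96-well plates. 2) Compound, 48 h, 5 concentrations. 3) Linear interpolation between surrounding doses. 4) Unreached endpoint = highest concentration. Here, GI50 denotes the concentration required for 50% inhibition of growth.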 Active and inactive are the calls of the source. No stated cut-off is given here; in the data, active = GI50 up to about 1.1 µM and inactive = higher. Bounds are passed on as bounds.

Consider `COC(=O)C(C(=O)C(=O)Nc1ccccc1C(C)=O)c1nc2ccc(Cl)cc2nc1O` (configuration not stated), for which the GI50 was 56.9 µM (inactive) with EKVX; > 100 µM (inactive) in the assay on HCC 2998; > 100 µM (inactive) in the assay on HT-29; > 100 µM (inactive) with M14; > 100 µM (inactive) in the assay on MOLT-4; > 100 µM (inactive) in the assay with OVCAR-4. For the same compound, the GI50 in the assay on OVCAR-5, with SF-268, in the assay with SF-539, with SK-MEL-2, with SK-OV-3 and in the assay on U-251 was > 100 µM (inactive) each time. The results for the GI50 in the assay on UACC-257, with UACC-62 and in the assay on UO-31 were > 100 µM (inactive), > 100 µM (inactive) and 77.8 µM (inactive), respectively.

As to `CCN(CC)CCOc1ccc(CCc2cc(OC)c(OC)c(OC)c2)cc1`, the GI50 with EKVX was 65.3 µM (inactive); in the assay on HT-29 it was 17.5 µM (inactive); in the assay on M14 it was 17.5 µM (inactive); in the assay on MOLT-4, 21.9 µM (inactive); in the assay with NCI-H522, 20 µM (inactive); with OVCAR-4, 55.3 µM (inactive). The GI50 with OVCAR-5 was 22.3 µM (inactive); with SF-268 it was > 100 µM (inactive); in the assay with SF-539, 81.7 µM (inactive); with SR it was 31.3 µM (inactive); in the assay on U-251, 45.3 µM (inactive); in the assay with UACC-257, 27.9 µM (inactive). The GI50 with UACC-62 was 26.1 µM (inactive); in the assay on UO-31, 28.2 µM (inactive).

On to `O=C1c2cccc([N+](=O)[O-])c2C(=O)c2nccnc21`, for which the GI50 with EKVX was 1.81 µM (inactive); in the assay with HCC 2998, 2.62 µM (inactive); in the assay on HT-29, 2.25 µM (inactive); with M14 it was 1.57 µM (inactive); in the assay with MOLT-4, 2.5 µM (inactive); in the assay with NCI-H522, 1.36 µM (inactive). The GI50 with OVCAR-4 is 1.42 µM (inactive); in the assay on OVCAR-5, 3.81 µM (inactive); in the assay on SF-539 it was 1.47 µM (inactive); in the assay with SK-MEL-2, 1.45 µM (inactive); with SR, 2.05 µM (inactive); in the assay on U-251 it was 1.4 µM (inactive). The figures for the GI50 in the assay with UACC-257, in the assay with UACC-62 and in the assay on UO-31 were 0.502 µM (active), 1.32 µM (inactive) and 1.27 µM (inactive), respectively.

With `Oc1nc(-c2ccccc2)cc(-c2ccccc2O)n1`, the GI50 in the assay with EKVX was 6.71 µM (inactive); in the assay on HCC 2998, > 100 µM (inactive); with HT-29 it was 56.6 µM (inactive); in the assay with M14 it was > 100 µM (inactive); in the assay with MOLT-4, 67 µM (inactive); in the assay on NCI-H522 it was 69.3 µM (inactive). Further, the GI50 in the assay on OVCAR-4 is > 100 µM (inactive); in the assay with OVCAR-5 it was 62.5 µM (inactive); in the assay with SF-268 it was > 100 µM (inactive); in the assay with SF-539, > 100 µM (inactive); in the assay with SK-OV-3, > 100 µM (inactive); in the assay on SR, > 100 µM (inactive). Besides, the GI50 in the assay with U-251 is 42.2 µM (inactive); in the assay on UACC-257, > 100 µM (inactive); in the assay on UACC-62, 77.3 µM (inactive); with UO-31, 41 µM (inactive).

On to `Oc1ccc2occ3c2c1CCC3`, for which the GI50 was 72.6 µM (inactive) in the assay with EKVX; > 100 µM (inactive) with HCC 2998; > 100 µM (inactive) in the assay on HT-29; > 100 µM (inactive) in the assay on M14; > 100 µM (inactive) in the assay on MOLT-4; > 100 µM (inactive) in the assay with OVCAR-4. The GI50 was > 100 µM (inactive) in the assay with SF-539; > 100 µM (inactive) in the assay on SK-OV-3; > 100 µM (inactive) in the assay with U-251; > 100 µM (inactive) in the assay with UACC-257; 95.9 µM (inactive) in the assay with UACC-62.

In the case of `CCOC(=O)C1=C(Nc2ccc(Cl)c(Cl)c2)OC/C1=N\NS(=O)(=O)c1ccc(C)cc1`, the GI50 is 58.1 µM (inactive) in the assay with EKVX; 33.5 µM (inactive) with HCC 2998; 73.3 µM (inactive) in the assay on M14; 26.3 µM (inactive) with MOLT-4; 29 µM (inactive) with NCI-H522; 63.5 µM (inactive) with OVCAR-4. For the same compound, the GI50 is > 100 µM (inactive) with OVCAR-5; 45.8 µM (inactive) in the assay with SF-268; 37.5 µM (inactive) with SF-539; 29.6 µM (inactive) with SK-MEL-2; 75.7 µM (inactive) with SK-OV-3; 66.5 µM (inactive) in the assay with U-251. In addition, the GI50 is 18.2 µM (inactive) in the assay on UACC-257, 39.4 µM (inactive) with UACC-62 and 25.1 µM (inactive) in the assay on UO-31.

Consider `Cc1nc2ccccc2c(=O)n1/N=C(\N=N\c1cc(Cl)ccc1Cl)c1ccc(N(C)C)cc1`, for which the GI50 in the assay on EKVX was 45.3 µM (inactive); in the assay on HT-29, 42 µM (inactive); with MOLT-4 it was 25.2 µM (inactive); with NCI-H522, 25 µM (inactive); in the assay on SF-268, 41.5 µM (inactive); with SF-539 it was 33 µM (inactive). Moreover, the GI50 with SK-OV-3 is 28.2 µM (inactive); in the assay with U-251, 38.1 µM (inactive); with UACC-62 it was 34.5 µM (inactive); in the assay on UO-31, 22.9 µM (inactive).

In the case of `O=C1C(c2ccccc2)=C(c2ccccc2)C(c2ccc(Sc3ccc(C4=C(c5ccccc5)C(=O)C(c5ccccc5)=C4c4ccccc4)cc3)cc2)=C1c1ccccc1`, the GI50 in the assay on EKVX, in the assay on HT-29, in the assay on M14, with MOLT-4, with NCI-H522 and with OVCAR-4 was > 100 µM (inactive) each time. In addition, the GI50 with OVCAR-5 is > 100 µM (inactive); with SF-268, > 100 µM (inactive); with SF-539, 72.9 µM (inactive); in the assay with SK-MEL-2, > 100 µM (inactive); in the assay on SK-OV-3 it was > 100 µM (inactive); in the assay on SR it was > 100 µM (inactive). Besides, the GI50 in the assay on U-251 is 48.6 µM (inactive); in the assay on UACC-257, > 100 µM (inactive); in the assay with UACC-62 it was > 100 µM (inactive); in the assay with UO-31 it was > 100 µM (inactive).

Regarding `NC(=O)c1c([N+](=O)[O-])cc(C(F)(F)F)cc1[N+](=O)[O-]`, the GI50 in the assay with EKVX was > 100 µM (inactive); with HCC 2998, 38.4 µM (inactive); in the assay on HT-29, 41.7 µM (inactive); in the assay on M14, 76.6 µM (inactive); in the assay with MOLT-4, > 100 µM (inactive); with NCI-H522 it was 21.5 µM (inactive). Further, the GI50 with OVCAR-4 is 68.2 µM (inactive); in the assay with OVCAR-5 it was > 100 µM (inactive); in the assay on SF-268, > 100 µM (inactive); with SF-539, 45.7 µM (inactive); in the assay on SK-OV-3 it was > 100 µM (inactive); with SR, > 100 µM (inactive). Moreover, the GI50 is > 100 µM (inactive) in the assay with U-251, 27 µM (inactive) in the assay on UACC-257, 35.1 µM (inactive) in the assay with UACC-62 and > 100 µM (inactive) with UO-31.

As to `O=C(O)c1ccc(C2C(=O)N[C@@H]3CCC[C@H]23)cc1` (some centres not stated), the GI50 in the assay on EKVX, with HCC 2998, in the assay with HT-29, in the assay on M14, in the assay with MOLT-4 and with NCI-H522 was > 100 µM (inactive) throughout. Further, the GI50 with OVCAR-4, in the assay on OVCAR-5, in the assay with SF-268, in the assay with SF-539, in the assay with SK-MEL-2 and in the assay with SK-OV-3 was > 100 µM (inactive) in each case. The GI50 in the assay with U-251, in the assay on UACC-257, in the assay with UACC-62 and in the assay with UO-31 was > 100 µM (inactive) each time.

Consider `CCN(CC)C(c1ccc(N(C)C)cc1)C(c1ccc(N(C)C)cc1)N(CC)CC` (configuration not stated), for which the GI50 with EKVX is > 72.9 µM (inactive); in the assay on HCC 2998, 40.4 µM (inactive); in the assay on HT-29, 21.6 µM (inactive); with M14, 33.3 µM (inactive); in the assay on MOLT-4 it was 30.3 µM (inactive); with NCI-H522 it was > 7.29 µM (inactive). In addition, the GI50 with OVCAR-4 was 12.9 µM (inactive); in the assay on OVCAR-5 it was > 72.9 µM (inactive); in the assay with SF-268 it was 65 µM (inactive); in the assay on SF-539, 36.5 µM (inactive); with SK-MEL-2 it was 22.8 µM (inactive); in the assay on SK-OV-3 it was > 72.9 µM (inactive). For the same compound, the values for the GI50 in the assay on U-251, in the assay with UACC-257 and in the assay with UACC-62 were > 72.9 µM (inactive), 36.6 µM (inactive) and 20.1 µM (inactive), respectively.

Consider `Cc1c[nH]c2c1C13CC1CN(C(=O)c1cc4cc(NC(=O)c5cc6ccccc6o5)ccc4[nH]1)C3=CC2=O` (configuration not stated), for which the GI50 in the assay on HCC 2998, with HT-29, in the assay with M14, in the assay with MOLT-4, in the assay on NCI-H522 and with OVCAR-4 was < 0.001 µM (active) each time. Also, the GI50 in the assay on OVCAR-5, in the assay with SF-268, in the assay on SF-539, in the assay on SK-MEL-2, in the assay with SR and in the assay on U-251 was < 0.001 µM (active) in each case. Also, the GI50 with UACC-257 and with UACC-62 was < 0.001 µM (active) each time.

In the case of `COc1ccc(/C(=C/n2ccnc2)C(=O)c2ccc(OC)c(OC)c2)cc1`, the GI50 with EKVX, in the assay with HCC 2998, in the assay on M14, in the assay on MOLT-4, in the assay on NCI-H522 and with OVCAR-4 was > 100 µM (inactive) throughout. Moreover, the GI50 with OVCAR-5, in the assay with SF-268, with SF-539, in the assay on SK-MEL-2, with SR and with U-251 was > 100 µM (inactive) in each case. Further, the figures for the GI50 in the assay with UACC-257, in the assay with UACC-62 and with UO-31 were > 100 µM (inactive), 39.3 µM (inactive) and > 100 µM (inactive), respectively.

Turning to `C(CCC[Te][Te]CCCCCCOC1CCCCO1)CCOC1CCCCO1` (configuration not stated), the GI50 is 14.1 µM (inactive) with HCC 2998; 12 µM (inactive) with HT-29; 21.1 µM (inactive) in the assay on M14; 9.82 µM (inactive) in the assay on MOLT-4; 14 µM (inactive) with OVCAR-5; 16.6 µM (inactive) with SF-268. For the same compound, the GI50 in the assay with SF-539 was 17.3 µM (inactive); with SK-MEL-2, 13.3 µM (inactive); in the assay on SK-OV-3, 39.6 µM (inactive); in the assay on SR, 7.64 µM (inactive); in the assay with U-251, 11.8 µM (inactive); with UACC-257 it was 6.81 µM (inactive). Further, the GI50 in the assay on UACC-62 was 10.6 µM (inactive); in the assay on UO-31 it was 19.8 µM (inactive).
